Columns and labels:
Aiolos = target: T1, Aiolos (Homo sapiens, UniProt Q96SW2+Q9UKT9); assay: Aiolos degradation in human PBMCs, flow cytometry (IMiD activity); assay type: cell-based; details: 24 hours; for DC50: Aiolos degradation; for Dmax: read-out: Dmax (maximum percent Aiolos degradation)
T1 construct: endogenous in cells; host or cells: human PBMCs (CD20+CD3- B cells, CD3+CD20- T cells)
Experimental: Frozen human peripheral blood mononuclear cells (PBMCs) were thawed and treated with DMSO or compound for 24 hours and then fixed and permeabilized using a Foxp3/Transcription Factor Fixation/Permeabilization Kit (eBioscience, 00-5523). Cells were stained with fluorophore-conjugated antibodies against CD20 (Biolegend 302330), CD3 (BD Pharmingen 552127), and Aiolos (Biolegend 371106). An additional set of DMSO-treated PBMCs was stained for CD20, CD3, and an AlexaFluor 647-conjugated mouse IgG1 isotype control antibody (Biolegend 400136). Stained cells were run on an Attune NxT Acoustic Focusing Flow Cytometer (Thermo-Fisher A29004), and data was analyzed using FlowJo (v10.5.3) and GraphPad Prism (v7.00) software. Single lymphocytes were gated for B cells (CD20+CD3−) and T cells (CD3+CD20−), and the geometric mean fluorescence intensity (MFI) of Aiolos was calculated for each population. The MFI of the isotype control was calculated for each population and used to quantify background staining. Percent Aiolos degradation was calculated for each compound-treated sample using the following equation: […]
DC50 is the compound concentration degrading […] of Aiolos. Dmax is the maximum percent Aiolos degradation in the assay.

arthritis = assay: Arthritis model, clinical arthritis score and body weight; assay type: in vivo, mice; details: daily oral treatment at 30 mg/kg, compared to dexamethasone and vehicle
Experimental: Significance of clinical arthritis score (A) was determined from the area under the curve (AUC) of mean paw scores calculated for individual mice. (C) Serum levels of anti-type II collagen IgG. Statistical significance was determined between vehicle control and treated groups with one-way Kruskal-Wallis ANOVA and Dunn's multiple comparisons test.

BTK = target: T2, BTK (Homo sapiens, UniProt Q06187); assay: BTK degradation and anti-tumor activity in preclinical models; assay type: in vivo
T2 construct: host or cells: preclinical models (not described)

Ikaros = target: T3, Ikaros (Homo sapiens, UniProt Q13422+Q96SW2); assay: Ikaros degradation in patient PBMCs, Western blot (Jess Simple Western); assay type: in vivo; details: Cycle 1 Day 8
T3 construct: from tissue; host or cells: patient PBMCs, lysed after in vivo dosing
Experimental: Frozen patient PBMCs collected at baseline and at Cycle 1 Day 8 were processed into protein lysate and degradation of cereblon neo-substrate Ikaros was determined using Western blot via Jess™ Simple Western automated system. […] Patients receiving 300 mg Compound 5, 75.2-95.7% Ikaros degradation was detected.
Frozen PBMCs from patients were prepared and Ikaros protein levels were assessed using Western blot via Jess™ Simple Western automated system.
FIG. 7A, densitometric analysis of Ikaros degradation in all patients were obtained after normalization to β-actin and % Ikaros degradation was calculated relative to Baseline values from each patient.
For Ikaros degradation assessment, patient PBMCs were lysed in lysis buffer RIPA buffer (Fisher, PI89901), complete Mini EDTA-free protease inhibitor (Sigma 11836170001), Protease Inhibitor Cocktail (Sigma, P2714) and Phosphatase Inhibitor Cocktail 2 and 3 (Sigma, P5726 and P0044) and stored overnight at −80° C. Cells were then thawed and centrifuged for 5 min at 8000×g and lysate supernatants were transferred to a fresh tube. Protein levels were determined by BCA Assay performed according to manufacturer's protocol (EMD Millipore, cat. no. 71285-3). A total of 3 μg protein was loaded and 1:50 dilution of primary anti-Ikaros (Cell Signaling Technology, cat. 14859) and 1:50 anti-β-Actin (Cell Signaling Technology, cat. 8457) was used. […]

T1 sequence (Q9UKT9 whole entry): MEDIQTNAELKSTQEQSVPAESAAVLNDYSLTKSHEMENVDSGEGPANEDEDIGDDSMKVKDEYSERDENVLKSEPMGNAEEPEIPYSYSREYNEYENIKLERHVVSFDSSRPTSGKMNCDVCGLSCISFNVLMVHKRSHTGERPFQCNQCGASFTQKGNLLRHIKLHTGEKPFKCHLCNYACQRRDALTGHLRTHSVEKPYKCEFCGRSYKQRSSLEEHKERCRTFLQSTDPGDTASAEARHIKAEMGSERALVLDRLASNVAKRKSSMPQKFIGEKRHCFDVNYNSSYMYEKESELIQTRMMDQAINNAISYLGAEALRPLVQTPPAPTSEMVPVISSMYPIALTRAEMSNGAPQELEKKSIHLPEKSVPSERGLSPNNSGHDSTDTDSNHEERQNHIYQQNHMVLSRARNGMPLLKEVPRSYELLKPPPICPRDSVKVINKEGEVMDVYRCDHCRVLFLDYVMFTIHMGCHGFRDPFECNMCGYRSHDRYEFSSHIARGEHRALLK
T1 sequence (Q96SW2 whole entry): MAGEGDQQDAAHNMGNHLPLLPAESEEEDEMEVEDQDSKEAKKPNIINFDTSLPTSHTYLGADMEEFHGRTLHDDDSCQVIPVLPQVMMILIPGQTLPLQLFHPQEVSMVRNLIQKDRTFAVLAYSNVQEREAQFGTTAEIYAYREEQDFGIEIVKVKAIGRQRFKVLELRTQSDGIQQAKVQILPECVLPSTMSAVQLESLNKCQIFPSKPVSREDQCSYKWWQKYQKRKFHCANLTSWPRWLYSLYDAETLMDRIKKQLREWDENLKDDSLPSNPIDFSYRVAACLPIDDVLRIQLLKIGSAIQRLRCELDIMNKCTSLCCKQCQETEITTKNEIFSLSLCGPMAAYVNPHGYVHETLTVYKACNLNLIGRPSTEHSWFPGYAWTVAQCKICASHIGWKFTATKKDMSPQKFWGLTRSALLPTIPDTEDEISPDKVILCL
T1 sequence (Q16531 whole entry partner): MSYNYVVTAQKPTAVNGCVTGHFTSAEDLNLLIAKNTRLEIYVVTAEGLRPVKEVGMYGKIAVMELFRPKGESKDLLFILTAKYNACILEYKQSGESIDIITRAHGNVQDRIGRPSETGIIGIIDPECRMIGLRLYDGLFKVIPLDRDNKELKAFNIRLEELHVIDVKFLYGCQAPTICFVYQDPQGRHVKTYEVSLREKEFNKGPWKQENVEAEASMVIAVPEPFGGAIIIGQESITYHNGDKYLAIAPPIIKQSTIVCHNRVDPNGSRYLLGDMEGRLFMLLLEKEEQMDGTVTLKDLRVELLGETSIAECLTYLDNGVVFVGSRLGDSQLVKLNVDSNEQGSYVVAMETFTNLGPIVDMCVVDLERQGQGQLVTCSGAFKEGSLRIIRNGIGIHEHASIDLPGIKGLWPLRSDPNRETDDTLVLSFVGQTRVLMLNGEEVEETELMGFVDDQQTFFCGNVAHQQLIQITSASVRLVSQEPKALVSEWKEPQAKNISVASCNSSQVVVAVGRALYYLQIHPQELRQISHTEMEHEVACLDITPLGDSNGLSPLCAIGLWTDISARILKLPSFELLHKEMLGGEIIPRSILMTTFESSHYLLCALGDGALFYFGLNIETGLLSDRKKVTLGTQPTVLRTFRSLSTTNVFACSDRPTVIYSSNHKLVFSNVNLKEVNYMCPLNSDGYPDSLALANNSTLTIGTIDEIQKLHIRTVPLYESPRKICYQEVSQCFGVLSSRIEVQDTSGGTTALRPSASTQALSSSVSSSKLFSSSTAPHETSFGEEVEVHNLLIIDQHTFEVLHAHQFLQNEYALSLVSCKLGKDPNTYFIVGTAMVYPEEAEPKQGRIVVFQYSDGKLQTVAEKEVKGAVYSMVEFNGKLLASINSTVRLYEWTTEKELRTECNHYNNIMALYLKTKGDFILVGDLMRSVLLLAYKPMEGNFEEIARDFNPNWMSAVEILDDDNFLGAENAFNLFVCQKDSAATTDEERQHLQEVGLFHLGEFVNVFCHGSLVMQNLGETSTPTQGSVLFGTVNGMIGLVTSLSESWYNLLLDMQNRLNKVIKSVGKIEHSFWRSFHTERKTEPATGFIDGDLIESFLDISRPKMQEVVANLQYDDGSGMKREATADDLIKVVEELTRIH
T3 sequence (Q13422 whole entry): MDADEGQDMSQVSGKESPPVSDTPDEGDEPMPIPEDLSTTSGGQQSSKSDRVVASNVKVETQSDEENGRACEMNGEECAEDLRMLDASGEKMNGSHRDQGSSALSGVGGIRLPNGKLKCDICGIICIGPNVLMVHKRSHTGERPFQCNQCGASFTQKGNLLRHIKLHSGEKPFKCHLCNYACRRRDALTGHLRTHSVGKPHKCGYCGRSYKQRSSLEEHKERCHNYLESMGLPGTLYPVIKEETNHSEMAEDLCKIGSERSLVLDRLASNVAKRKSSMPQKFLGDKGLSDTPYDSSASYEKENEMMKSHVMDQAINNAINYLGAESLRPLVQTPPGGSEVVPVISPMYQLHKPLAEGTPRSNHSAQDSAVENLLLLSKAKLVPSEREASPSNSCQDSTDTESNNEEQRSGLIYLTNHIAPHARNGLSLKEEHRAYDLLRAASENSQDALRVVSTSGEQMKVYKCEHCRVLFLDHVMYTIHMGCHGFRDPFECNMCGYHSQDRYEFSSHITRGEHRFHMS
T3 sequence (Q96SW2 whole entry): as the sequence (Q96SW2 whole entry) above
T3 sequence (Q16531 whole entry partner): as the sequence (Q16531 whole entry partner) above
T2 sequence (Q06187 whole entry, species assumed): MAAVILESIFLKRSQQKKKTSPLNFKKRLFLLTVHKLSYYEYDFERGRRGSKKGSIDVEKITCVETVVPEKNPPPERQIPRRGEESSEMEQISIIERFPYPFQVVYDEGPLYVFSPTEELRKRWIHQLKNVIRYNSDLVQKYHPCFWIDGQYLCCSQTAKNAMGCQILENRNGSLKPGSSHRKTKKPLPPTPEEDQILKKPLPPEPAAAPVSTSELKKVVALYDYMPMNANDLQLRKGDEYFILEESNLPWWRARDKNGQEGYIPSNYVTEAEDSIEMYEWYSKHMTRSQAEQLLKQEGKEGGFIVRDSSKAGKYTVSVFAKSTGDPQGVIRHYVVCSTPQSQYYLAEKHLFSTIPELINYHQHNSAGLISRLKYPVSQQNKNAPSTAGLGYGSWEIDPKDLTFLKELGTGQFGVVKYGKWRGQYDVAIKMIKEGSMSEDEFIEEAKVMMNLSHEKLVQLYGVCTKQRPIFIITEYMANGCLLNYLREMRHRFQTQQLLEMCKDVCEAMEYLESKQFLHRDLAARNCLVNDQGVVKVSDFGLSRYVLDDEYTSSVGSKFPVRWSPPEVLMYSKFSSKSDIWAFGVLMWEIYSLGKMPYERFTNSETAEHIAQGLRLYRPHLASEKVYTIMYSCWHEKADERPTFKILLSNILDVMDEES

SMILES | DC50 (Aiolos) | Dmax (Aiolos) | BTK degradation (BTK) | Ikaros degradation (Ikaros; patients receiving 300 mg) | Ikaros degradation (Ikaros; patients receiving either 100 or 200 mg) | body weight loss (arthritis)
CN1CCN([C@H]2CCCN(c3cnc(C(N)=O)c(Nc4cnn(C5CCN(CC6CN(c7ccc8c(c7)C(=O)N(C7CCC(=O)NC7=O)C8=O)C6)CC5)c4)n3)C2)C1=O (stereo partly drawn) [Compound 6] | 23 nM | 70.8% |  |  |  | 
CN1CCN([C@@H]2CCCN(c3cnc(C(N)=O)c(Nc4ccc5c(c4)CCN(C4CN(c6ccc7c(c6)C(=O)N(C6CCC(=O)NC6=O)C7=O)C4)C5)n3)C2)C1=O (stereo partly drawn) [Compound 8] | 1 nM | 98.4% |  |  |  | 
CN1CCN([C@@H]2CCCN(c3cnc(C(N)=O)c(Nc4ccc(N5CC6(C5)CN(c5ccc7c(c5)C(=O)N(C5CCC(=O)NC5=O)C7=O)C6)cc4)n3)C2)C1=O (stereo partly drawn) [Compound 10] | 9 nM | 83.1% |  |  |  | 
NC(=O)c1ncc(N2CCCCC2)nc1Nc1ccc2c(c1)CCN(C[C@H]1CCN(c3ccc4c(c3)C(=O)N(C3CCC(=O)NC3=O)C4=O)C1)C2 (stereo partly drawn) [Compound 1] | 27 nM | 77.4% |  |  |  | 
CN1CCN([C@@H]2CCCN(c3cnc(C(N)=O)c(Nc4ccc5c(c4)CCN(CC4CCN(c6ccc7c(c6)C(=O)N(C6CCC(=O)NC6=O)C7=O)CC4)C5)n3)C2)C1=O (stereo partly drawn) [Compound 9] | 12 nM | 86.5% |  |  |  | 
CN1CCN([C@@H]2CCCN(c3cnc(C(N)=O)c(Nc4ccc(C5CN(C6CCN(c7ccc8c(c7)C(=O)N(C7CCC(=O)NC7=O)C8=O)CC6)C5)cc4)n3)C2)C1=O (stereo partly drawn) [Compound 11] | 20 nM | 78.7% |  |  |  | 
NC(=O)c1ncc(N2CCCCC2)nc1Nc1ccc2c(c1)CCN(C1CN(c3ccc4c(c3)C(=O)N(C3CCC(=O)NC3=O)C4=O)C1)C2 (racemic) [Compound 2, rac-3-{[2-(1-{2-[(3R)-2,6-dioxopiperidin-3-yl]-1,3-dioxoisoindol-5-yl}azetidin-3-yl)-3,4-dihydro-1H-isoquinolin-6-yl]amino}-5-(piperidin-1-yl)pyrazine-2-carboxamide] | 5.2 nM | 94.7% |  |  |  | 
CN1CCN([C@@H]2CCCN(c3cnc(C(N)=O)c(Nc4ccc(C5CCN(CCCNc6cccc7c6C(=O)N(C6CCC(=O)NC6=O)C7=O)CC5)cc4)n3)C2)C1=O (stereo partly drawn) [Compound 4] | 8 nM | 87% |  |  |  | 
NC(=O)c1ncc(N2CCCCC2)nc1Nc1ccc(C2CCN(C[C@@H]3CCN(c4ccc5c(c4)C(=O)N(C4CCC(=O)NC4=O)C5=O)C3)CC2)cc1 (stereo partly drawn) [Compound 5] | 22 nM | 89.1% | ≥ 80% | 75.2-95.7% | 26.1-60.5% | minimal body weight loss
CN1CCN([C@@H]2CCCN(c3cnc(C(N)=O)c(Nc4ccc(C5CCN(C[C@H]6CCN(c7ccc8c(c7)C(=O)N(C7CCC(=O)NC7=O)C8=O)C6)CC5)cc4)n3)C2)C1=O (stereo partly drawn) [Compound 13] | 33 nM | 73.9% |  |  |  | 
CN1CCN([C@H]2CCCN(c3cnc(C(N)=O)c(Nc4ccc5c(c4)CCN(CC4CN(c6ccc7c(c6)C(=O)N(C6CCC(=O)NC6=O)C7=O)C4)C5)n3)C2)C1=O (stereo partly drawn) [Compound 7] | 4 nM | 98.2% |  |  |  | 
CN1CCN([C@@H]2CCCN(c3cnc(C(N)=O)c(Nc4ccc(C5CCN(C[C@H]6CC[C@H](Nc7cccc8c7C(=O)N(C7CCC(=O)NC7=O)C8=O)CC6)CC5)cc4)n3)C2)C1=O (stereo partly drawn) [Compound 3] | 93 nM | 84.9% |  |  |  | 
CN1CCN([C@@H]2CCCN(c3cnc(C(N)=O)c(Nc4ccc(N5CCN(C[C@@H]6[C@H]7CN(c8ccc9c(c8)C(=O)N(C8CCC(=O)NC8=O)C9=O)C[C@@H]67)CC5)cc4)n3)C2)C1=O (stereo partly drawn) [Compound 12] | 7 nM | 65.1% |  |  |  | 

Further lines, with some results ahead:

DC50 (Aiolos) | Dmax (Aiolos) | BTK degradation (BTK) | Ikaros degradation (Ikaros; patients receiving 300 mg) | Ikaros degradation (Ikaros; patients receiving either 100 or 200 mg) | SMILES | body weight loss (arthritis)
560 nM | 51.9% |  |  |  | CN1CCN([C@@H]2CCCN(c3cnc(C(N)=O)c(Nc4ccc(C5(C)CCN(C(=O)CCOCCC(=O)Nc6cccc7c6CN(C6CCC(=O)NC6=O)C7=O)CC5)cc4)n3)C2)C1=O (stereo partly drawn) [Compound 17] | 
11 nM | 74% |  |  |  | CN1CCN([C@@H]2CCCN(c3cnc(C(N)=O)c(Nc4ccc(C5CCN(CC6CCN(c7ccc8c(c7)C(=O)N(C7CCC(=O)NC7=O)C8=O)CC6)CC5)cc4)n3)C2)C1=O (stereo partly drawn) [Compound 14] | 
24 nM | 95.7% |  |  |  | CN1CCN([C@@H]2CCCN(c3cnc(C(N)=O)c(Nc4ccc(OCCCNc5ccc6c(c5)C(=O)N(C5CCC(=O)NC5=O)C6=O)cc4)n3)C2)C1=O (stereo partly drawn) [Compound 16] | 
9 nM | 81.6% |  |  |  | CN1CCN([C@@H]2CCCN(c3cnc(C(N)=O)c(Nc4ccc(N5CCN(CCCCc6cccc7c6CN(C6CCC(=O)NC6=O)C7=O)CC5)cc4)n3)C2)C1=O (stereo partly drawn) [Compound 18] | 
1 nM | 98.6% |  |  |  | CN1CCN([C@@H]2CCCN(c3cnc(C(N)=O)c(Nc4ccc(C5CCN(C(=O)CCOCCNc6cccc7c6C(=O)N(C6CCC(=O)NC6=O)C7=O)CC5)cc4)n3)C2)C1=O (stereo partly drawn) [Compound 19] | 
17 nM | 74.7% |  |  |  | CN1CCN([C@@H]2CCCN(c3cnc(C(N)=O)c(Nc4ccc(C5CCN(C6CN(c7ccc8c(c7)C(=O)N(C7CCC(=O)NC7=O)C8=O)C6)CC5)cc4)n3)C2)C1=O (stereo partly drawn) [Compound 15] | 

— patent US20250017922A1, “BIFUNCTIONAL COMPOUNDS FOR DEGRADING BTK WITH ENHANCED IMID ACTIVITY” (NURIX THERAPEUTICS, INC., priority 2021, published 2025)
